Source: US20050096350A1, “Halo substituted benzo[b]thiophenes as therapeutic agents” (priority 2003, published 2005)

These compounds were tested against T1, PI3Kγ (purified recombinant p101/p110γ protein) (Homo sapiens, UniProt P48736) (assay: PI3Kγ in vitro kinase assay). Settings: 20 μM ATP, 25 μM PIP2, G protein β1/γ2 subunits.
T1 construct: HA; made in house; host or cells: Spodoptera frugiperda Sf9 cells (baculovirus coinfection)
T1 sequence (P48736 whole entry, species assumed): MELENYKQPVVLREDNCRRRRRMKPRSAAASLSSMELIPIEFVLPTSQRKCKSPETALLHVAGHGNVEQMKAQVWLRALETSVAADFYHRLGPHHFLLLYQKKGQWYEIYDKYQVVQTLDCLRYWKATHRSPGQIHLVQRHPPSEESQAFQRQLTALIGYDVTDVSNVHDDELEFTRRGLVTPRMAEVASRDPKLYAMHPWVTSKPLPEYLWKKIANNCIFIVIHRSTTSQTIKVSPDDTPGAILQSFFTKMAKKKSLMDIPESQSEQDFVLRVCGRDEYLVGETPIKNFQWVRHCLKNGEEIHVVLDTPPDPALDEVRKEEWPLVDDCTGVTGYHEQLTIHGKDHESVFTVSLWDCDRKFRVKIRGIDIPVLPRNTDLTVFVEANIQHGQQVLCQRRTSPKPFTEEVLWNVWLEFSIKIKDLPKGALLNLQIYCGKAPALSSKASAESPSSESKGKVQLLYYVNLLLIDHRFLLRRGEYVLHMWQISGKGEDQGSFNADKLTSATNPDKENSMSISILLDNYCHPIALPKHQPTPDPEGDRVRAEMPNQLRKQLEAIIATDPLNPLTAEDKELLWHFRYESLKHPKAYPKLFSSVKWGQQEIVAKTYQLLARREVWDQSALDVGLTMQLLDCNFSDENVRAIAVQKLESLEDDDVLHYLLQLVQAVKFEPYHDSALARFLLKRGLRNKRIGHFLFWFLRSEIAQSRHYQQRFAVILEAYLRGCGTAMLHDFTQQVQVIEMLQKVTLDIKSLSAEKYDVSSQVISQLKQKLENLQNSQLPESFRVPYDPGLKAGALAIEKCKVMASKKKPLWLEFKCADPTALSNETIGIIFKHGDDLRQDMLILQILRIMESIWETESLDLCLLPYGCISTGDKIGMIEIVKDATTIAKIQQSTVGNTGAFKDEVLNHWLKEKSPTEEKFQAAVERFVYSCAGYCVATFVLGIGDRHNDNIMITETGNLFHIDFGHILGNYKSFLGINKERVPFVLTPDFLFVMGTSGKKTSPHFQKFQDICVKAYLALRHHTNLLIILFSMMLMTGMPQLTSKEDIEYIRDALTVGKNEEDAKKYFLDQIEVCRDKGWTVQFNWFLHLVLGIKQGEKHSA
T1 sequence (Q8WYR1 whole entry partner, species assumed): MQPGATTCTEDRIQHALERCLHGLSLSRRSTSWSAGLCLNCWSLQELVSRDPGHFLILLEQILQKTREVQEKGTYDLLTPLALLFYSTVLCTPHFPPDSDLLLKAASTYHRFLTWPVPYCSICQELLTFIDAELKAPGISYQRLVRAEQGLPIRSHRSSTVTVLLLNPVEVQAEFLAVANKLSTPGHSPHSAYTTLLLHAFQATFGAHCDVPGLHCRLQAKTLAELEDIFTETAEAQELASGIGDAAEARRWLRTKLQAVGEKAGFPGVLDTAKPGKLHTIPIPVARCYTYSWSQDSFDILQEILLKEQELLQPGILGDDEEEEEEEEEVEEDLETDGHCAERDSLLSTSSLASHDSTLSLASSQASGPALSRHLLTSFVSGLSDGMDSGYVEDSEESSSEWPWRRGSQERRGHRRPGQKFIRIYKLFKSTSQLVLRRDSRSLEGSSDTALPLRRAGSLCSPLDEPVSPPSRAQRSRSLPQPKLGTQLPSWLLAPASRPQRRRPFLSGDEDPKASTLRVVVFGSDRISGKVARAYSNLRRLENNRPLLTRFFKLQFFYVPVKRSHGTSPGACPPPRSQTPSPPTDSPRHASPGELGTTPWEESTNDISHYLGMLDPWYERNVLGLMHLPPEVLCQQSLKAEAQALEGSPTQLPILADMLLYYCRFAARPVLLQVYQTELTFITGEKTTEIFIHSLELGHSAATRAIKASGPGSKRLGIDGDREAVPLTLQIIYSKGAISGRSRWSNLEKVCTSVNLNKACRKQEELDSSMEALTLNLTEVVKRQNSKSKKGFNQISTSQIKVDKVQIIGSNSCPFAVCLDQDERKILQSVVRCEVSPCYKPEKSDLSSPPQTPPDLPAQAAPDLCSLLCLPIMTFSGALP
Format: biochemical
Protocol: Spodtera frugiperda cells, grown in ESF921 media, were coinfected with baculovirus expressing a glu-tagged p101 and baculovirus expressing an HA-tagged […], at a 3:1 ratio of p101 baculovirus to p110γ baculovirus. Sf9 cells were grown to 1×10^7 total cells/mL in 10 L bioreactors and harvested 48-72 hours post infection. Samples of infected cells were then tested for expression of p101/p110γ PI3 kinase by immunoprecipitation and Western Blot analysis methods (see below).
To purify PI3Kγ, 4 volumes of room temperature hypotonic lysis buffer (1 mM MgCl2, 1 mM DTT, 5 mM EGTA, 1 mM Pefabloc, 0.5 μM aprotinin, 5 μM leupeptin, 2 μM pepstatin, 5 μM E64, pH 8) per gram of cell paste, was poured onto frozen cell pellets with stirring, then lysed in a nitrogen “bomb” at 400 psi (599HC T316, Parr Instrument Co, Moline, Ill.). NaCl was added to 150 mM, and sodium cholate was added to 1% and mixed for another 45 minutes. The lysates were clarified by centrifugation for 25 minutes at 14,000 rpm. The lysates were then loaded over anti-glu-linked Protein-G Sepaharose beads (Covance Research Products, Richmond, Calif.) using 20 mL resin/50 g cell paste. The column was washed with 15 volumes of wash buffer (1 mM DTT, 0.2 mM EGTA, 1 mM Pefabloc, 0.5 μM aprotinin, 5 μM leupeptin, 2 μM pepstatin, 5 μM E64, 150 mM NaCl, 1% sodium cholate, pH 8). PI3Kγ was eluted with 6 column volumes of wash buffer that contain 100 μg/mL of a peptide that competes for binding of the glu tag. The column fractions with the eluted protein (determined by taking OD280 readings) were collected and dialyzed in 0.2 mM EGTA, 1 mM DTT, 1 mM Pefabloc, 5 μM leupeptin, 0.5% sodium cholate, 150 mM NaCl, and 50% glycerol, pH 8. The fractions were stored at −80° C. until further use.
Spodtera frugiperda cells were coinfected with baculovirus expressing a glu-tagged G protein β1 and baculovirus expressing a G protein β2, at a 1:1 ratio of glu-tagged G protein β1 baculovirus to G protein β2 baculovirus. Sf9 cells are grown in 10 L bioreactors and harvested 48-72 hours post infection. Samples of infected cells were tested for G protein β1/β2 expression by Western Blot analysis, as described below. Cell lysates were homogenized and loaded onto a column of glu-tagged beads as in Biological Example 1 and competed off the column with a glu peptide and processed as described in Biological Example 1.
The inhibitory properties of the compounds in Table 1 were assayed in an in vitro PI3K assay. In a 96-well polypropylene plate, each well was spotted with 2 μL of 50 times the desired final concentration of compound in DMSO. Purified recombinant p101/p110γ protein (0.03 μg; ˜2.7 nM) and G protein β1/γ2 subunits (0.09 μg; ˜57.7 nM) for each reaction was combined in the assay buffer (30 mM HEPES, 100 mM NaCl, 1 mM EGTA, and 1 mM DTT). ATP and [γ-^32P-ATP] (0.09 μCi) were added to this mixture so that the final ATP concentration in the reaction was 20 μM. Lipid micelles were formed by sonicating phosphatidylinositol-4,5-diphosphate (PIP2), phosphatidylethanolamine (PE), and Na-cholate in the assay buffer for 10 minutes, adding MgCl2 and incubating on ice for 20 minutes, for final concentrations of 25 μM PIP2, 300 μM PE, 0.02% Na-cholate, and 10 mM MgCl2 in the reaction. The reactions were started by adding equal volumes lipid and enzyme mixture in a total volume of 50 μL, allowed to run for 20 minutes at room temperature, and stopped with 100 μL 75 mM H3PO4. The lipid product was transferred to a glass fiber filter plate and washed with 75 mM H3PO4 several times. The presence of radioactive lipid product (PIP3) was measured by adding Wallac Optiphase mix to each well and counting in a Wallac 1450 Trilux plate reader (PerkinElmer Life Sciences Inc., Boston, Mass. 02118). The IC50 for each compound tested is reported in μM in the Tables above.
COc1ccc2sc(C(=O)Nc3nnn[nH]3)c(Sc3ccc(CCC(=O)O)cc3)c2c1F [Example 36, 3-{4-[4-Fluoro-5-methoxy-2-(1H-tetrazol-5-ylcarbamoyl)-benzo[b]thiophen-3-ylsulfanyl]-phenyl}-propionic acid] showed an IC50 of 7.18 µM. Work on COc1ccc2sc(C(=O)Nc3nnn[nH]3)c(Sc3cccc(O)c3)c2c1F [Example 23, 4-Fluoro-3-(3-hydroxy-phenylsulfanyl)-5-methoxy-benzo[b]thiophene-2-carboxylic acid (1H-tetrazol-5-yl)-amide] yielded an IC50 of 3.64 µM. Compound COc1ccc2sc(C(=O)Nc3nnn[nH]3)c(Sc3ccc(C(=O)O)cc3)c2c1F [Example 34, 4-[4-Fluoro-5-methoxy-2-(1H-tetrazol-5-ylcarbamoyl)-benzo[b]thiophen-3-ylsulfanyl]-benzoic acid] has an IC50 of 5.95 µM. COc1cc2c(O[C@H]3CCC[C@@H](C)C3)c(C(=O)Nc3nn[nH]n3)sc2cc1F (racemic) [Example 9, cis-(±)-6-Fluoro-5-methoxy-3-(3-methyl-cyclohexyloxy)-benzo[b]thiophene-2-carboxylic acid (2H-tetrazol-5-yl)-amide] was tested, and the IC50 was 0.0038 µM. Work on COc1cc2c(Oc3ccc(OC4CCCC4)cc3)c(C(=O)Nc3nn[nH]n3)sc2cc1F [Example 2, 3-(4-Cyclopentyloxy-phenoxy)-6-fluoro-5-methoxy-benzo[b]thiophene-2-carboxylic acid (2H-tetrazol-5-yl)-amide] yielded an IC50 of 0.015 µM. For COC(=O)Cc1ccc(Sc2c(C(=O)Nc3nnn[nH]3)sc3ccc(OC)c(F)c23)cc1 [Example 27, {4-[4-Fluoro-5-methoxy-2-(1H-tetrazol-5-ylcarbamoyl)-benzo[b]thiophen-3-ylsulfanyl]-phenyl}-acetic acid methyl ester], the IC50 was 14.2 µM. Work on COC(=O)c1cccc(Sc2c(C(=O)Nc3nnn[nH]3)sc3ccc(OC)c(F)c23)c1 [Example 24, 3-[4-Fluoro-5-methoxy-2-(1H-tetrazol-5-ylcarbamoyl)-benzo[b]thiophen-3-ylsulfanyl]-benzoic acid methyl ester] yielded an IC50 of 4.2 µM. Compound COc1ccc2sc(C(=O)Nc3nnn[nH]3)c(SC3CCCC3)c2c1F [Example 38, 3-Cyclopentylsulfanyl-4-fluoro-5-methoxy-benzo[b]thiophene-2-carboxylic acid (1H-tetrazol-5-yl)-amide] has an IC50 of 0.19 µM. “4-Fluoro-5-methoxy-3-(3-trifluoromethyl-phenylsulfanyl)-benzo[b]thiophene-2-carboxylic acid (1H-tetrazol-5-yl)-amide [Example 29]” was tested, and the IC50 was 11 µM. Compound COC(=O)c1ccc(Sc2c(C(=O)Nc3nnn[nH]3)sc3ccc(OC)c(F)c23)cc1 [Example 26, 4-[4-Fluoro-5-methoxy-2-(1H-tetrazol-5-ylcarbamoyl)-benzo[b]thiophen-3-ylsulfanyl]-benzoic acid methyl ester] has an IC50 of 20 µM. COc1ccc2sc(C(=O)Nc3nnn[nH]3)c(Sc3ccc(O)cc3)c2c1F [Example 22, 4-Fluoro-3-(4-hydroxy-phenylsulfanyl)-5-methoxy-benzo[b]thiophene-2-carboxylic acid (1H-tetrazol-5-yl)-amide] was tested, and the IC50 was 2.76 µM.

Same assay, conditions: 20 μM ATP, 25 μM PIP2, G protein β1/γ2 subunits, table b291
COc1cc2c(SC3CCCC3)c(C(=O)Nc3nnn[nH]3)sc2cc1F [Example 42, 3-Cyclopentylsulfanyl-6-fluoro-5-methoxy-benzo[b]thiophene-2-carboxylic acid (1H-tetrazol-5-yl)-amide] gave an IC50 of 0.011 µM. “3-Cyclohexylsulfanyl-6-fluoro-5-methyl-benzo[b]thiophene-2-carboxylic acid (1H-tetrazol-5-yl)-amide [Example 41]” gave an IC50 of 0.012 µM.

Same assay, conditions: 20 μM ATP, 25 μM PIP2, G protein β1/γ2 subunits, table b298
With COc1cc2c(Oc3ccc(C4CCCCC4)cc3)c(C(=O)Nc3nn[nH]n3)sc2cc1Br [Example 43, 6-Bromo-3-(4-Cyclohexyl-phenoxy)-5-methoxy-benzo[b]thiophene-2-carboxylic acid (2H-tetrazol-5-yl)-amide] the IC50 was 0.38 µM.
